Laboratory results as given in patent US10821115B2, “Compounds that inhibit Mcl-1 protein” (priority 2017, dated 2020).
Where two headings read alike, the source gives them in different places.

Key:
[1] = biological target: recombinant human Mcl-1 (residues 171-327) / Bim interaction (Homo sapiens (Human), UniProt Q07820); assay: biochemical; type: binding; details: read-out: Mcl-1 HTRF IC50
[2] = test system: human multiple myeloma cell line, OPM-2; assay: Cell viability assay (OPM-2 10 FBS), CellTiter-Glo; type: cell-based
Summary of the method: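 OPM-2 cells at 3000 cells/well in RPMI 1640 with 10% FBS were exposed to serially diluted compounds for 16 h at 37 °C, 5% CO2.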

[3] = 0.1 nM Mcl-1(171-327), 0.05 nM biotin-Bim (51-76)
[4] = Homo sapiens, OPM-2, 16 h, read-out: OPM-2 10% FBS IC50 IP, OPM-2 cells, 10% FBS, 16 h incubation
[5] = TR-FRET, Mcl-1(171-327) / biotin-Bim (51-76)
[6] = read-out: OPM-2 10% FBS IC50 IP, OPM-2 cells, 10% FBS, 16 h, CellTiter-Glo
[7] = Homo sapiens, OPM-2, 16 h, read-out: OPM-2 10% FBS IC50 IP, OPM-2 cells, 10% FBS, 16 h, CellTiter-Glo

Sequence of recombinant human Mcl-1 (residues 171-327) / Bim interaction (Q07820 171-327): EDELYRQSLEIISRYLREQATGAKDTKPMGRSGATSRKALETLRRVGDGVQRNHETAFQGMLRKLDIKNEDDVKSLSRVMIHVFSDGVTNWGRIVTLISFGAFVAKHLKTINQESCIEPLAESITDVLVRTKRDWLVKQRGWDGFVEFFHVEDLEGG

Compound | IC50 [1, 3] [nM] | IC50 [1, 5] [nM] | also measured
COC[C@@H]1[C@@H](C)C/C=C/[C@](CN2CCN(C3COC3)CC2)(OC)[C@@H]2CC[C@H]2CN2C[C@@]3(CCCc4cc(Cl)ccc43)COc3ccc(cc32)C(=O)NS1(=O)=O [Example 170, (1S,3′R,6′R,7′S,8′E,11′S,12′S)-6-chloro-7′-methoxy-12′-(methoxymethyl)-11′-methyl-7′-((4-(3-oxetanyl)-1-piperazinyl)methyl)-3,4-dihydro-2H,15′H-spiro[naphthalene-1,22′-[20]oxa[13]thia[1,14]diazatetracyclo [14.7.2.0~3,6~.0~19,24~]pentacosa[8,16,18,24]tetraen]-15′-one 13′,13′-dioxide] | 0.131 | – | IC50 [2, 4]: 75 nM
CC[C@@H]1CC/C=C/[C@](O)(C(F)(F)F)[C@@H]2CC[C@H]2CN2C[C@@]3(CCCc4cc(Cl)ccc43)COc3ccc(cc32)C(=O)NS1(=O)=O [Example 100044, (1S,3′R,6′R,7′R,8′E,12′R)-6-chloro-12′-ethyl-7′-hydroxy-7′-(trifluoromethyl)-3,4-dihydro-2H,15′H-spiro[naphthalene-1,22′-[20]oxa[13]thia[1,14]diazatetracyclo [14.7.2.0~3,6~.0~19,24~]pentacosa[8,16,18,24]tetraen]-15′-one 13′,13′-dioxide] | – | 31.1 | IC50 [2, 6]: 7290 nM
CO[C@]1(CN2CCN3CCS(=O)(=O)C[C@@H]3C2)/C=C/C[C@H](C)[C@@H](C)S(=O)(=O)NC(=O)c2ccc3c(c2)N(C[C@@H]2CC[C@H]21)C[C@@]1(CCCc2cc(Cl)ccc21)CO3 (single isomer, unassigned) [Example 221] | 0.069 | – | IC50 ([2]; read-out: OPM-2 10% FBS IC50 IP, OPM-2 cells, 10% FBS, 16 h incubation): 120 nM
CO[C@@]1(CN(C)CCN2CCOCC2)/C=C/C[C@H](C)[C@@H](C)S(=O)(=O)NC(=O)c2ccc3c(c2)N(C[C@@H]2CC[C@H]21)C[C@@]1(CCCc2cc(Cl)ccc21)CO3 [Example 35, (1S,3′R,6′R,7′S,8′E,11′S,12′R)-6-chloro-7′-methoxy-11′,12′-dimethyl-7′-((methyl(2-(4-morpholinyl)ethyl)amino)methyl)-3,4-dihydro-2H,15′H-spiro[naphthalene-1,22′-[20]oxa[13]thia[1,14]diazatetracyclo [14.7.2.0~3,6~.0~19,24~]pentacosa[8,16,18,24]tetraen]-15′-one 13′,13′-dioxide] | 0.218 | – | IC50 [2, 4]: 235 nM
C[C@@H]1[C@@H](C)C/C=C/[C@@](O)(C#CCCN2CCOCC2)[C@@H]2CC[C@H]2CN2C[C@@]3(CCCc4cc(Cl)ccc43)COc3ccc(cc32)C(=O)NS1(=O)=O [Example 100327, (1S,3′R,6′R,7′S,8′E,11′S,12′R)-6-chloro-7′-hydroxy-11′,12′-dimethyl-7′-(4-(4-morpholinyl)-1-butyn-1-yl)-3,4-dihydro-2H,15′H-spiro[naphthalene-1,22′-[20]oxa[13]thia[1,14]diazatetracyclo [14.7.2.0~3,6~.0~19,24~]pentacosa[8,16,18,24]tetraen]-15′-one 13′,13′-dioxide] | – | 0.295 | IC50 [2, 6]: 550 nM
CO[C@]1(CS(C)(=O)=O)/C=C/C[C@H](C)[C@@H](C)S(=O)(=O)NC(=O)c2ccc3c(c2)N(C[C@@H]2CC[C@H]21)C[C@@]1(CCCc2cc(Cl)ccc21)CO3 [Example 100492, (1S,3′R,6′R,7′R,8′E,11′S,12′R)-6-chloro-7′-methoxy-11′,12′-dimethyl-7′-((methylsulfonyl)methyl)-3,4-dihydro-2H,15′H-spiro[naphthalene-1,22′-[20]oxa[13]thia[1,14]diazatetracyclo [14.7.2.0~3,6~.0~19,24~]pentacosa[8,16,18,24]tetraen]-15′-one 13′,13′-dioxide] | – | 0.749 | IC50 [2, 7]: 436 nM
C[C@@H]1[C@@H](C)CCC[C@](O)(CC(=O)N2CCN(C)CC2)[C@@H]2CC[C@H]2CN2C[C@@]3(CCCc4cc(Cl)ccc43)COc3ccc(cc32)C(=O)NS1(=O)=O (single isomer, unassigned) [Example 100168] | – | 0.249 | IC50 [2, 7]: 196 nM
